From US11787810B2, “Diacylglyceride O-acyltransferase 2 inhibitors” (Merck Sharp & Dohme Corp., priority 2020, dated 2023)

Target: human DGAT2 (hDGAT2) (Homo sapiens (Human), UniProt Q96PD7)
Experiment: DGAT2 enzymatic activity assay (13C18-triolein formation, LC/MS/MS)
Type: biochemical
Conditions: hDGAT2 Sf-9 membrane prep, 25 μM diolein, 5 μM 13C oleoyl-CoA; read-out: Human DGAT2 IC50
Procedure: Sf-9 insect cells were maintained in Grace's insect cell culture medium with 10% heated-inactivated fetal bovine serum, 1% Pluronic F-68 and 0.14 μg/ml Kanamycine sulfate at 27° C. in a shaker incubator. After infection with untagged baculovirus expressing human DGAT2 (hDGAT2) at multiplicity of infection (MOI) 3 for 48 hours, cells were harvested. Cell pellets were suspended in buffer containing 10 mM Tris-HCl pH 7.5, 1 mM EDTA, 250 mM sucrose and Complete Protease Inhibitor Cocktail (Sigma Aldrich), and sonicated on ice. Cell debris were removed by centrifugation at 2000×g for 15 minutes. Membrane fractions were isolated by ultracentrifugation (100,000×g), resuspended in the same buffer, and frozen (−80° C.) for later use. The protein concentration was determined with the Pierce™ BCA Protein Assay Kit (Thermo Fisher Scientific). Expression of protein levels was analyzed by immunoblotting with rabbit anti-DGAT2 antibody (Abcam, ab102831) and donkey anti-rabbit IgG H&L Alexa Fluor® 647 (Abcam, ab150075) followed by detection using Typhoon FLA9000 (GE Healthcare).
LC/MS/MS analyses were performed using Thermal Fisher's LX4-TSQ Vantage system. This system consists of an Agilent binary high-performance liquid chromatography (HPLC) pumps and a TSQ Vantage triple quadrupole MS/MS instrument. For each sample, 2 μL samples from the top organic layer of in-plate liquid-liquid extraction were injected onto a Thermo Betabasic C4 column (2.1 mm×20 mm, 5 μm particle size). The samples were then eluted using the following conditions; mobile phase: Isopropanol:acetonitrile/10 mM ammonium formate=50/35/15 (v/v/v), flow rate: 0.8 mL/min, temperature: 25° C. Data was acquired in positive mode using a heated electrospray ionization (HESI) interface. The operational parameters for the TSQ Vantage MS/MS instrument were a spray voltage of 3000 V, capillary temperature of 280° C., vaporizer temperature 400° C., sheath gas 45 arbitrary unit, Aux gas 10 arbitrary units, S-lens 165 and collision gas 1.0 mTorr. […] (SRM) chromatograms of ^13C18-triolein (Q1: 920.8>Q3:621.3) and internal standard ^13C21-triolein (Q1: 923.8>Q3:617.3) were collected for 33 sec. The peak area was integrated by Xcalibur Quan software. The ratio between the ^13C18triolein generated in the reaction and spiked in internal standard ^13C21-triolein was used to generate percentage inhibition and IC50 values. Compound percentage inhibition was calculated by the following formula: Inhibition %=1-[(compound response−low control)/(high control−low control)]×100%. Potent compounds were titrated and IC50 were calculated by 4 parameter sigmoidal curve fitting formula.
DGAT2 activity was determined by measuring the amount of enzymatic product ^13C18-triolein (^13C-1,2,3-Tri(cis-9-octadecenoyl)glycerol) using the membrane prep mentioned above. The assay was carried out in ABgene 384-well assay plates in a final volume of 25 μL at rt. The assay mixture contained the following: assay buffer (100 mM Tris·Cl, pH 7.0, 20 mM MgCl2, 5% ethanol), 25 μM of diolein, 5 μM of ^13C oleoyl-CoA and 8 ng/μL of DGAT2 membrane.

Sequence of human DGAT2 (hDGAT2) (Q96PD7 whole entry): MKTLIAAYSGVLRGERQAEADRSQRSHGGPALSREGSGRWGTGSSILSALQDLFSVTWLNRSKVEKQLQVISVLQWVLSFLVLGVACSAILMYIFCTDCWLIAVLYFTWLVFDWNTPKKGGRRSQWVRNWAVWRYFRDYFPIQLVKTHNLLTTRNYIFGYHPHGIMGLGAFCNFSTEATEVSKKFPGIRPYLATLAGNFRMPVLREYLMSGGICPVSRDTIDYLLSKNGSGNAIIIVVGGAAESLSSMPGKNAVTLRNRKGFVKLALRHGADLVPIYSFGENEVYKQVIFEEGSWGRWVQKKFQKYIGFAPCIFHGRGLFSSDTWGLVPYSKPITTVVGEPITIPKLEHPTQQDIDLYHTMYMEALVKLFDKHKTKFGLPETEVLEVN

`CC(C)n1nc(-c2cccc(OC(F)F)c2)c2ncc(C(=O)NC3(C(C)O)CCOCC3)cc21` (single isomer, unassigned) [Example 73b, 3-(3-(difluoromethoxy)phenyl)-N-(4-(1-hydroxyethyl)tetrahydro-2H-pyran-4-yl)-1-isopropyl-1H-pyrazolo[4,3-b]pyridine-6-carboxamide] and `CC(C)n1nc(-c2cccc(OC(F)F)c2)c2ncc(C(=O)NC3(C(C)(C)O)CCOC3)cc21` (single isomer, unassigned) [Example 47b, 3-(3-(difluoromethoxy)phenyl)-N-(3-(2-hydroxypropan-2-yl)tetrahydrofuran-3-yl)-1-isopropyl-1H-pyrazolo[4,3-b]pyridine-6-carboxamide] are within 1.5-fold of each other in IC50: 74 nM for the first, 50 nM for the second.

First: CCC(C)n1nc(-c2cccc(OC(F)F)c2)c2ncc(C(=O)NC3(C)CS(=O)(=O)C3)cc21 (single isomer, unassigned) [Example 66a, 3-[3-(difluoromethoxy)phenyl]-N-(3-methyl-1,1-dioxo-thietan-3-yl)-1-sec-butyl-pyrazolo[4,3-b]pyridine-6-carboxamide]
Second: CC(O)C(C)n1nc(-c2cccc(OC(F)F)c2)c2ncc(C(=O)NC3(C)CS(=O)(=O)C3)cc21 (single isomer, unassigned) [Example 78b, 3-(3-(difluoromethoxy)phenyl)-1-(3-hydroxybutan-2-yl)-N-(3-methyl-1,1-dioxidothietan-3-yl)-1H-pyrazolo[4,3-b]pyridine-6-carboxamide]
The IC50 of the first is 16-fold higher: 71 nM for the first, 4.4 nM for the second.

Going from `CC(O)C(C)NC(=O)c1cnc2c(-c3cccc(OC(F)F)c3)nn(C(C)C)c2c1` (single isomer, unassigned) [Example 45b, 3-(3-(difluoromethoxy)phenyl)-N-(3-hydroxybutan-2-yl)-1-isopropyl-1H-pyrazolo[4,3-b]pyridine-6-carboxamide] to `CC(C)n1nc(-c2cccc(OC(F)F)c2)c2ncc(C(=O)NC(C)(C)C(C)O)cc21` (single isomer, unassigned) [Example 46b, 3-(3-(difluoromethoxy)phenyl)-N-(3-hydroxy-2-methylbutan-2-yl)-1-isopropyl-1H-pyrazolo[4,3-b]pyridine-6-carboxamide], the IC50 falls from 520 nM to 13 nM (40-fold). The second is the more potent here.

Going from `C[C@]1(NC(=O)c2cnc3c(-c4cccc(OC(F)F)c4)nn(C4CCCOC4)c3c2)CCS(=O)(=O)C1` (single isomer, unassigned) [Example 62b] to `C[C@]1(NC(=O)c2cnc3c(-c4cccc(OC(F)F)c4)nn(C4CCOC4)c3c2)CCS(=O)(=O)C1` (single isomer, unassigned) [Example 60b], the IC50 falls from 116 nM to 37 nM (3.1-fold).

Compared with `CC1(NC(=O)c2cnc3c(-c4cccc(OC(F)F)c4)nn([C@@H]4COC[C@H]4O)c3c2)CS(=O)(=O)C1` (single isomer, unassigned) [Example 53b, 3-(3-(difluoromethoxy)phenyl)-1-((trans)-4-hydroxytetrahydrofuran-3-yl)-N-(3-methyl-1,1-dioxidothietan-3-yl)-1H-pyrazolo[4,3-b]pyridine-6-carboxamide], `CC1(C#N)CC(n2nc(-c3cccc(OC(F)F)c3)c3ncc(C(=O)NC4(C)CS(=O)(=O)C4)cc32)C1` (single isomer, unassigned) [Example 87a, 1-(3-cyano-3-methylcyclobutyl)-3-(3-(difluoromethoxy)phenyl)-N-(3-methyl-1,1-dioxidothietan-3-yl)-1H-pyrazolo[4,3-b]pyridine-6-carboxamide] is 1.9-fold lower in IC50: 132 nM for the first, 70 nM for the second.

Going from `CC(O)C(C)n1nc(-c2cccc(OC(F)F)c2)c2ncc(C(=O)NC3(C)CS(=O)(=O)C3)cc21` (single isomer, unassigned) [Example 78c, 3-(3-(difluoromethoxy)phenyl)-1-(3-hydroxybutan-2-yl)-N-(3-methyl-1,1-dioxidothietan-3-yl)-1H-pyrazolo[4,3-b]pyridine-6-carboxamide] to `CC(O)C(C)NC(=O)c1cnc2c(-c3cccc(OC(F)F)c3)nn(C(C)C)c2c1` (single isomer, unassigned) [Example 45c, 3-(3-(difluoromethoxy)phenyl)-N-(3-hydroxybutan-2-yl)-1-isopropyl-1H-pyrazolo[4,3-b]pyridine-6-carboxamide], the IC50 rises from 121 nM to 498 nM (4.1-fold). The first is the more potent here.

Compared with `CC(C)n1nc(-c2cccc(OC(F)F)c2)c2ncc(C(=O)NC3(C(C)O)CCOCC3)cc21` (single isomer, unassigned) [Example 73a, 3-(3-(difluoromethoxy)phenyl)-N-(4-(1-hydroxyethyl)tetrahydro-2H-pyran-4-yl)-1-isopropyl-1H-pyrazolo[4,3-b]pyridine-6-carboxamide], `CC(C)n1nc(-c2cccc(OC(F)F)c2)c2ncc(C(=O)NC3(C(C)(C)O)CCOC3)cc21` (single isomer, unassigned) [Example 47a, 3-(3-(difluoromethoxy)phenyl)-N-(3-(2-hydroxypropan-2-yl)tetrahydrofuran-3-yl)-1-isopropyl-1H-pyrazolo[4,3-b]pyridine-6-carboxamide] is 12-fold higher in IC50: 119 nM for the first, 1410 nM for the second.

First: O=C(N[C@@H]1CCC[C@H]1N1CCOCC1)c1cnc2c(-c3cccc(OC(F)F)c3)cn(-c3ncc(F)cn3)c2c1 [Example 7, 3-(3-(difluoromethoxy)phenyl)-1-(5-fluoropyrimidin-2-yl)-N-((1R,2R)-2-morpholinocyclopentyl)-1H-pyrrolo[3,2-b]pyridine-6-carboxamide]
Second: N[C@H]1CCC[C@H]1NC(=O)c1cnc2c(-c3cccc(OC(F)F)c3)cn(-c3ncc(F)cn3)c2c1 [Example 20, N-((1R,2S)-2-aminocyclopentyl)-3-(3-(difluoromethoxy)phenyl)-1-(5-fluoropyrimidin-2-yl)-1H-pyrrolo[3,2-b]pyridine-6-carboxamide]
The IC50 of the first is 4.2-fold lower: 45 nM for the first, 189 nM for the second. The first is the more potent here.

Compared with `CC(O)C(C)n1nc(-c2cccc(OC(F)F)c2)c2ncc(C(=O)NC3(C)CS(=O)(=O)C3)cc21` (single isomer, unassigned) [Example 78a, 3-(3-(difluoromethoxy)phenyl)-1-(3-hydroxybutan-2-yl)-N-(3-methyl-1,1-dioxidothietan-3-yl)-1H-pyrazolo[4,3-b]pyridine-6-carboxamide], `C[C@]1(NC(=O)c2cnc3c(-c4cccc(OC(F)F)c4)cn(-c4ccc(F)cc4)c3c2)CCS(=O)(=O)C1` [Example 9, (S)-3-(3-(difluoromethoxy)phenyl)-1-(4-fluorophenyl)-N-(3-methyl-1,1-dioxidotetrahydrothiophen-3-yl)-1H-pyrrolo[3,2-b]pyridine-6-carboxamide] is 250-fold lower in IC50: 1730 nM for the first, 6.8 nM for the second. The second is the more potent here.

`C[C@]1(NC(=O)c2cnc3c(-c4cccc(OC(F)F)c4)cn(-c4ccc(F)cc4)c3n2)CCS(=O)(=O)C1` [Example 24, (S)-7-(3-(difluoromethoxy)phenyl)-5-(4-fluorophenyl)-N-(3-methyl-1,1-dioxidotetrahydrothiophen-3-yl)-5H-pyrrolo[2,3-b]pyrazine-3-carboxamide] and `CC(O)C(C)n1nc(-c2cccc(OC(F)F)c2)c2ncc(C(=O)NC3(C)CS(=O)(=O)C3)cc21` (single isomer, unassigned) [Example 78d, 3-(3-(difluoromethoxy)phenyl)-1-(3-hydroxybutan-2-yl)-N-(3-methyl-1,1-dioxidothietan-3-yl)-1H-pyrazolo[4,3-b]pyridine-6-carboxamide] are within 1.5-fold of each other in IC50: 50 nM for the first, 47 nM for the second.

Same assay, conditions: table head without 'Human'; same membrane assay; read-out: DGAT2 IC50

In the case of `CC(n1nc(-c2cc(OC(F)F)ncc2F)c2cnc(C(=O)NC3(C)CS(=O)(=O)C3)cc21)C(C)(C)O` (single isomer, unassigned) [Example 133a, 3-(2-(difluoromethoxy)-5-fluoropyridin-4-yl)-1-(3-hydroxy-3-methylbutan-2-yl)-N-(3-methyl-1,1-dioxidothietan-3-yl)-1H-pyrazolo[4,3-c]pyridine-6-carboxamide], the IC50 is reported as 862 nM.
In the case of `CC(n1nc(-c2cc(OC(F)F)ncc2F)c2cnc(C(=O)NC3(C)CS(=O)(=O)C3)cc21)C(C)(C)O` (single isomer, unassigned) [Example 133b, 3-(2-(difluoromethoxy)-5-fluoropyridin-4-yl)-1-(3-hydroxy-3-methylbutan-2-yl)-N-(3-methyl-1,1-dioxidothietan-3-yl)-1H-pyrazolo[4,3-c]pyridine-6-carboxamide], the IC50 is reported as 15 nM.
